Test results reported in patent publication US7524930B2, “Tumor antigen” (Green Peptide Co., Ltd, priority 2003, dated 2009).

Columns and labels:
[1] = test system: human peripheral blood mononuclear cells (PBMC); assay: CTL induction by peptide from PBMC of HLA-A2-positive cancer patients and healthy individuals, IFN-γ against peptide-pulsed T2 cells (Example 6); assay type: cell-based; conditions: for INF-γ production: peptide-pulsed T2 cells; for Healthy individuals in whom CTL were induced from PBMC: six healthy individuals; for Patients in whom peptide-specific HLA-A2-restricted CTL were induced from PBMC: sixteen HLA-A2-positive cancer patients
Method: For six peptides (P21, P22, P24, P26, P30, and P32) with a purity of 95% or higher among peptides from P20 to P32 derived from gene 7 and CPSF among the tumor antigen peptide obtained in Example 4, the activity to induce CTL in vitro from human peripheral blood mononuclear cells (PBMC) was examined using IFN-γ production as an indicator. PBMC used was prepared from each peripheral blood of sixteen HLA-A2-positive cancer patients (4 patients with pancreatic cancer, seven patients with stomach cancer, and 5 patients with colon cancer) and six healthy individuals. Specifically, 1×10^5 PBMC was added to each well of 96-well U-bottom type microculture plate (Nunc Corp.) and incubated together with 10 μM of each of the above-described peptides in 200 μl culture medium. The culture medium consisted of 45% RPMI-1640, 45% AIM-V (Invitrogen Corp.,) 10% fetal calf serum (FCS), 100U/ml of human interleukin-2, and […] MEM nonessential amino acid solution (Invitrogen Corp.). At day 4 and day 7 after the start of culturing, half of the culture medium was removed and replaced with the above-described composition containing each corresponding peptide. At day 10 after the start of culturing, the cells were collected and washed, followed by reacting with T2 cells, which were pulsed with each corresponding peptide, to measure the amount of IFN-γ produced.

OK-CTLp or OK-CTL clone = assay: Recognition of peptide-pulsed T2 cells by OK-CTLp or OK-CTL clone (IFN-γ ELISA); assay type: cell-based, human
[2] = test system: Panc-1 pancreatic adenocarcinoma cell (HLA-A2); assay: 6-h 51Cr-releasing test of peptide-stimulated PBMC against Panc-1 (Example 6); assay type: cell-based, human
Method: Meanwhile, the above-described cells cultured for 10 days after stimulation by the peptide were further cultured for 10 days. The cytotoxicity of the obtained cells against the Panc-1 pancreatic adenocarcinoma cell (HLA-A2) was measured by the standard 6-h ^51Cr-releasing test in an E/T ratio of 10:1. The results obtained are presented as % specific lysis (table 7). Together with this step, cytotoxicity against SSTW-9 tumor cell as the HLA-A2^− tumor cell was measured to use as a background that was subtracted from the above-described result.

[3] = PBMC of colon cancer patient 12
[4] = PBMC of colon cancer patient 13
[5] = PBMC of colon cancer patient 14
[6] = PBMC of colon cancer patient 15
[7] = PBMC of colon cancer patient 16
[8] = PBMC of pancreatic cancer patient 1
[9] = PBMC of pancreatic cancer patient 2
[10] = PBMC of pancreatic cancer patient 3
[11] = PBMC of pancreatic cancer patient 4
[12] = PBMC of stomach cancer patient 5
[13] = PBMC of stomach cancer patient 6
[14] = PBMC of stomach cancer patient 7
[15] = PBMC of stomach cancer patient 8
[16] = PBMC of stomach cancer patient 9
[17] = PBMC of stomach cancer patient 10
[18] = PBMC of stomach cancer patient 11
[19] = concentration of peptide 0.1 μM
[20] = PBMC of colon cancer patient 14, Panc-1, E/T 10:1
[21] = PBMC of pancreatic cancer patient 4, Panc-1, E/T 10:1
[22] = PBMC of colon cancer patient 12, Panc-1, E/T 10:1
[23] = PBMC of pancreatic cancer patient 2, Panc-1, E/T 10:1, SSTW-9 background subtracted
[24] = PBMC of colon cancer patient 13, Panc-1, E/T 10:1

Sequence | INF-γ production [1, 3] [pg/mL] | INF-γ production [1, 4] [pg/mL] | INF-γ production [1, 5] [pg/mL] | INF-γ production [1, 6] [pg/mL] | INF-γ production [1, 7] [pg/mL] | INF-γ production ([1]; PBMC of healthy individual HD1) [pg/mL] | INF-γ production ([1]; PBMC of healthy individual HD2) [pg/mL] | INF-γ production ([1]; PBMC of healthy individual HD3) [pg/mL] | INF-γ production ([1]; PBMC of healthy individual HD4) [pg/mL] | INF-γ production ([1]; PBMC of healthy individual HD5) [pg/mL] | INF-γ production ([1]; PBMC of healthy individual HD6) [pg/mL] | INF-γ production [1, 8] [pg/mL] | INF-γ production [1, 9] [pg/mL] | INF-γ production [1, 10] [pg/mL] | INF-γ production [1, 11] [pg/mL] | INF-γ production [1, 12] [pg/mL] | INF-γ production [1, 13] [pg/mL] | INF-γ production [1, 14] [pg/mL] | INF-γ production [1, 15] [pg/mL] | INF-γ production [1, 16] [pg/mL] | also measured
KVHPVIWSL [Peptide P21] | 0 | 0 | 66 | 0 | 140 | 0 | 0 | 58 | 5 | 224 | 97 | 0 | 7 | 0 | 543 | 0 | 0 | 0 | 5 | > 1500 | INF-γ production [1, 17]: 0 pg/mL; INF-γ production [1, 18]: 136 pg/mL; Healthy individuals in whom CTL were induced from PBMC [1]: 50%; Patients in whom peptide-specific HLA-A2-restricted CTL were induced from PBMC [1]: 31%; IFN-γ production (OK-CTLp or OK-CTL clone; [19]): 428 pg/mL; IFN-γ production (OK-CTLp or OK-CTL clone; concentration of peptide 1 μM): 501 pg/mL; IFN-γ production (OK-CTLp or OK-CTL clone; concentration of peptide 10 μM): 81 pg/mL; IFN-γ production (OK-CTLp or OK-CTL clone; concentration of peptide 50 μM): 195 pg/mL; % specific lysis [2, 20]: 11%; % specific lysis [2, 21]: 12%; % specific lysis ([2]; PBMC of stomach cancer patient 9, Panc-1, E/T 10:1): 27%; % specific lysis ([2]; PBMC of stomach cancer patient 11, Panc-1, E/T 10:1): 18%
DMWTVIAPV (Designed peptide having an ability to activate HLA-A2 restricted Cytotoxic T lymphocytes) [Peptide P22, CPSF 534-542] | 92 | 179 | 80 | 5 | 0 | 0 | 0 | 0 | 0 | 0 | 14 | 0 | 38 | 0 | 8 | 0 | 0 | 0 | 0 | 0 | INF-γ production [1, 17]: 0 pg/mL; INF-γ production [1, 18]: 0 pg/mL; Healthy individuals in whom CTL were induced from PBMC [1]: 33%; Patients in whom peptide-specific HLA-A2-restricted CTL were induced from PBMC [1]: 38%; IFN-γ production (OK-CTLp or OK-CTL clone; [19]): 254 pg/mL; IFN-γ production (OK-CTLp or OK-CTL clone; concentration of peptide 1 μM): 1027 pg/mL; IFN-γ production (OK-CTLp or OK-CTL clone; concentration of peptide 10 μM): 431 pg/mL; IFN-γ production (OK-CTLp or OK-CTL clone; concentration of peptide 50 μM): 407 pg/mL; % specific lysis [2, 22]: 28%; % specific lysis [2, 20]: 19%; % specific lysis [2, 23]: 37%
QLGQGNLKV [Peptide P23] | 71 | 138 | 48 | 14 | 0 | 0 | 13 | 8 | 6 | 83 | 45 | 0 | 41 | 0 | 72 | 0 | 0 | 46 | 0 | 0 | INF-γ production [1, 17]: 0 pg/mL; INF-γ production [1, 18]: 0 pg/mL; Patients in whom peptide-specific HLA-A2-restricted CTL were induced from PBMC [1]: 25%; IFN-γ production (OK-CTLp or OK-CTL clone; [19]): 6360 pg/mL; IFN-γ production (OK-CTLp or OK-CTL clone; concentration of peptide 1 μM): 0 pg/mL; IFN-γ production (OK-CTLp or OK-CTL clone; concentration of peptide 10 μM): 345 pg/mL; IFN-γ production (OK-CTLp or OK-CTL clone; concentration of peptide 50 μM): 160 pg/mL; % specific lysis [2, 22]: 18%; % specific lysis [2, 24]: 10%; % specific lysis [2, 23]: 53%; % specific lysis [2, 21]: 10%; % specific lysis ([2]; PBMC of stomach cancer patient 7, Panc-1, E/T 10:1): 10%
LMLQNALTIM (LMLQNALTTM; Designed peptide having an ability to activate HLA-A2 restricted Cytotoxic T lymphocytes) [Peptide P30, Gene 7 1359-1368] | 0 | 41 | 33 | 0 | 68 | 0 | 0 | 14 | 0 | 0 | 0 | 0 | 12 | 0 | 73 | 0 | 0 | 0 | 146 | 92 | INF-γ production [1, 17]: 46 pg/mL; INF-γ production [1, 18]: 0 pg/mL; Patients in whom peptide-specific HLA-A2-restricted CTL were induced from PBMC [1]: 44%; IFN-γ production (OK-CTLp or OK-CTL clone; [19]): 88 pg/mL; IFN-γ production (OK-CTLp or OK-CTL clone; concentration of peptide 1 μM): 7001 pg/mL; % specific lysis [2, 24]: 12%; % specific lysis [2, 20]: 10%; % specific lysis [2, 21]: 11%; % specific lysis ([2]; PBMC of stomach cancer patient 8, Panc-1, E/T 10:1): 18%; % specific lysis ([2]; PBMC of stomach cancer patient 10, Panc-1, E/T 10:1): 26%
